Test results published in patent publication US10214508B2, “Nitrogen-containing heterocyclic compound” (Takeda Pharmaceutical Company Limited, priority 2014, dated 2019).

Target: T1, human M1 receptor (hCHRM1) (Homo sapiens, UniProt P11229)
T1 construct: expressed in transfected cells
T1 sequence (P11229 1-460): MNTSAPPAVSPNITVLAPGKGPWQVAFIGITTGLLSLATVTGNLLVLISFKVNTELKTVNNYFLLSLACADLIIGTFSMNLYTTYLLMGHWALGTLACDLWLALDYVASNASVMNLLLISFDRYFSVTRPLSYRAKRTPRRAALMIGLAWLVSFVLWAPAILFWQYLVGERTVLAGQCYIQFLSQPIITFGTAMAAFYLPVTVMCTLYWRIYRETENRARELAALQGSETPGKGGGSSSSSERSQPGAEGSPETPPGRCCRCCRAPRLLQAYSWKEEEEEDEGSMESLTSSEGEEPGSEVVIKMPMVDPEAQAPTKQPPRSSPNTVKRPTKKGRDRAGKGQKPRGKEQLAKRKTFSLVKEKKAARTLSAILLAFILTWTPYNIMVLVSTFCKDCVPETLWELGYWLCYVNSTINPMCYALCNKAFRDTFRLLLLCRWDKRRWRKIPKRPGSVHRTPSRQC
Assay: Measurement of M1 receptor positive allosteric modulator (M1PAM) activity, calcium fluorescence (FLIPRtetra)
Type: cell-based
Conditions: 10 μM test compound with acetylcholine at EC20 (final 0.6-0.8 nM); 100% = acetylcholine 1 μM, 0% = DMSO; CHO-K1 cells expressing hCHRM1
Experimental: Measurement of M1 Receptor Positive Allosteric Modulator (M1PAM) Activity
The activity of a test compound in the presence of acetylcholine at EC20 concentration (final concentration 0.6-0.8 nM), which affords an action corresponding to about 20% of the maximum activity, was measured as PAM activity. The method is as follows. CHO-K1 cells stably expressing a human M1 receptor (hCHRM1) were plated on a 384-well black clear bottom plate (BD Falcon) at 5,000 cells/well, and cultured in an incubator at 37° C., 5% CO2 for 1 day. The medium in the cell plate was removed, and assay buffer A containing calcium indicator (Recording medium (DOJINDO LABORATORIES), 0.1% BSA (Wako Pure Chemical Industries, Ltd.), 2.5 μg/mL Fluo-4 AM (DOJINDO LABORATORIES), 0.08% Pluronic F127 (DOJINDO LABORATORIES), 1.25 mM probenecid (DOJINDO LABORATORIES)) was added at 30 μL/well. The cells were left standing in the incubator at 37° C., 5% CO2 for 30 min, and further left standing at room temperature for 30 min. A test compound prepared by diluting with assay buffer B (HBSS (Invitrogen), 20 mM HEPES (Invitrogen), 0.1% BSA) containing 2.4-3.2 nM acetylcholine was added at 10 μL/well, and the fluorescence was measured by FLIPRtetra (Molecular Devices) for 1 min every for 1 second. With the definition that the amount of change in the fluorescence on addition of acetylcholine (final concentration 1 μM) is 100% and that on addition of DMSO instead of a test compound is 0%, the activity (%) of the test compound was calculated, and the inflection point in the concentration-dependent curve of the test compound was calculated as IP values.

Row | SMILES | activity (%) at 10 μM [%]
1 | Cc1cnc(C(=O)NC2CC(F)(F)C2)cc1Cc1ccc(-c2ccn(C)n2)cc1 [Example 30, N-(3,3-difluorocyclobutyl)-5-methyl-4-(4-(1-methyl-1H-pyrazol-3-yl)benzyl)pyridine-2-carboxamide] | 85
2 | Cc1cnc(C(=O)NC2CCOC2)cc1Cc1ccc(-c2ccn(C)n2)cc1 (stereo not shown) [Example 31, 5-methyl-4-(4-(1-methyl-1H-pyrazol-3-yl)benzyl)-N-(tetrahydrofuran-3-yl)pyridine-2-carboxamide] | 84
3 | Cc1cnc(C(=O)NC2CCCOC2)cc1Cc1ccc(-c2ccn(C)n2)cc1 (stereo not shown) [Example 32, 5-methyl-4-(4-(1-methyl-1H-pyrazol-3-yl)benzyl)-N-(tetrahydro-2H-pyran-3-yl)pyridine-2-carboxamide] | 101
4 | Cc1cnc(C(=O)NC2CCC(F)(F)CC2)cc1Cc1ccc(-c2ccn(C)n2)cc1 [Example 33, N-(4,4-difluorocyclohexyl)-5-methyl-4-(4-(1-methyl-1H-pyrazol-3-yl)benzyl)pyridine-2-carboxamide] | 71
5 | Cn1ccc(-c2ccc(Cc3cc(C(=O)N[C@H]4COCC[C@@H]4O)ncc3C(F)F)cc2)n1 [Example 40, 1,5-anhydro-2,4-dideoxy-2-(((5-(difluoromethyl)-4-(4-(1-methyl-1H-pyrazol-3-yl)benzyl)pyridin-2-yl)carbonyl)amino)-L-threo-pentitol] | 95
6 | Cn1ccc(-c2ccc(Cc3cc(C(=O)N[C@H]4CCCC[C@@H]4O)ncc3C(F)F)cc2)n1 [Example 41, 5-(difluoromethyl)-N-((1S,2S)-2-hydroxycyclohexyl)-4-(4-(1-methyl-1H-pyrazol-3-yl)benzyl)pyridine-2-carboxamide] | 95
7 | CCc1cnc(C(=O)N[C@H]2COCC[C@@H]2O)cc1Cc1ccc(-n2cccn2)cc1 [Example 44, 1,5-anhydro-2,4-dideoxy-2-(((5-ethyl-4-(4-(1H-pyrazol-1-yl)benzyl)pyridin-2-yl)carbonyl)amino)-L-threo-pentitol] | 92
8 | O=C(N[C@H]1COCC[C@@H]1O)c1cc(Cc2ccc(-n3cccn3)cc2)c(C2CC2)cn1 [Example 47, 1,5-anhydro-2-(((5-cyclopropyl-4-(4-(1H-pyrazol-1-yl)benzyl)pyridin-2-yl)carbonyl)amino)-2,4-dideoxy-L-threo-pentitol] | 96
9 | Cn1ccc(-c2ccc(Cc3cc(C(=O)N[C@H]4CCCC[C@@H]4O)ncc3Cl)cc2)n1 [Example 51, 5-chloro-N-((1S,2S)-2-hydroxycyclohexyl)-4-(4-(1-methyl-1H-pyrazol-3-yl)benzyl)pyridine-2-carboxamide] | 95
10 | Cn1ccc(-c2ccc(Cc3cc(C(=O)N[C@H]4CCCC[C@@H]4O)ncc3Cl)cc2)n1 [Example 52, 5-chloro-N-((1S,2S)-2-hydroxycyclohexyl)-4-(4-(1-methyl-1H-pyrazol-3-yl)benzyl)pyridine-2-carboxamide] | 100
11 | COc1cnc(C(=O)N[C@H]2COCC[C@@H]2O)cc1Cc1ccc(-n2cccn2)cc1 [Example 56, 1,5-anhydro-2,4-dideoxy-2-(((5-methoxy-4-(4-(1H-pyrazol-1-yl)benzyl)pyridin-2-yl)carbonyl)amino)-L-threo-pentitol] | 103
12 | COc1cnc(C(=O)N[C@H]2CCCC[C@@H]2O)cc1Cc1ccc(Cl)nc1 [Example 57, 4-((6-chloropyridin-3-yl)methyl)-N-(2-trans-hydroxycyclohexyl)-5-methoxypyridine-2-carboxamide] | 95

Other lines, results leading:

Row | activity (%) at 10 μM [%] | SMILES
13 | 96 | Cc1cnc(C(=O)N[C@H]2CCC[C@@H]2O)cc1Cc1ccc(-n2cccn2)nc1 [Example 34, N-((1S,2S)-2-hydroxycyclopentyl)-5-methyl-4-((6-(1H-pyrazol-1-yl)pyridin-3-yl)methyl)pyridine-2-carboxamide]
14 | 102 | Cc1cnc(C(=O)N[C@H]2CCCC[C@@H]2O)cc1Cc1ccc(-n2cccn2)nc1 [Example 35, N-((1S,2S)-2-hydroxycyclohexyl)-5-methyl-4-((6-(1H-pyrazol-1-yl)pyridin-3-yl)methyl)pyridine-2-carboxamide]
15 | 95 | Cc1cnc(C(=O)N[C@H]2COCC[C@@H]2O)cc1Cc1ccc(-n2cccn2)cc1F [Example 36, 1,5-anhydro-2,4-dideoxy-2-(((4-(2-fluoro-4-(1H-pyrazol-1-yl)benzyl)-5-methylpyridin-2-yl)carbonyl)amino)-L-threo-pentitol]
16 | 106 | O=C(N[C@H]1CCC[C@@H]1O)c1cc(Cc2ccc(-n3cccn3)cc2)c(C(F)F)cn1 [Example 37, 5-(difluoromethyl)-N-((1S,2S)-2-hydroxycyclopentyl)-4-(4-(1H-pyrazol-1-yl)benzyl)pyridine-2-carboxamide]
17 | 101 | O=C(N[C@H]1CCCC[C@@H]1O)c1cc(Cc2ccc(-n3cccn3)cc2)c(C(F)F)cn1 [Example 38, 5-(difluoromethyl)-N-((1S,2S)-2-hydroxycyclohexyl)-4-(4-(1H-pyrazol-1-yl)benzyl)pyridine-2-carboxamide]
18 | 100 | O=C(N[C@H]1COCC[C@@H]1O)c1cc(Cc2ccc(-n3cccn3)cc2)c(C(F)F)cn1 [Example 39, 1,5-anhydro-2,4-dideoxy-2-(((5-(difluoromethyl)-4-(4-(1H-pyrazol-1-yl)benzyl)pyridin-2-yl)carbonyl)amino)-L-threo-pentitol]
19 | 106 | C=Cc1cnc(C(=O)N[C@H]2CCCC[C@@H]2O)cc1Cc1ccc(-n2cccn2)cc1 [Example 42, N-((1S,2S)-2-hydroxycyclohexyl)-4-(4-(1H-pyrazol-1-yl)benzyl)-5-vinylpyridine-2-carboxamide]
20 | 92 | CCc1cnc(C(=O)N[C@H]2CCCC[C@@H]2O)cc1Cc1ccc(-n2cccn2)cc1 [Example 43, 5-ethyl-N-((1S,2S)-2-hydroxycyclohexyl)-4-(4-(1H-pyrazol-1-yl)benzyl)pyridine-2-carboxamide]
21 | 102 | O=C(N[C@H]1CCCC[C@@H]1O)c1cc(Cc2ccc(-n3cccn3)cc2)ccn1 [Example 45, N-((1S,2S)-2-hydroxycyclohexyl)-4-(4-(1H-pyrazol-1-yl)benzyl)pyridine-2-carboxamide]
22 | 101 | O=C(N[C@H]1CCCC[C@@H]1O)c1cc(Cc2ccc(-n3cccn3)cc2)c(C2CC2)cn1 [Example 46, 5-cyclopropyl-N-((1S,2S)-2-hydroxycyclohexyl)-4-(4-(1H-pyrazol-1-yl)benzyl)pyridine-2-carboxamide]
23 | 106 | Cc1cnc(C(=O)N[C@H]2CCCC[C@@H]2O)cc1Cc1ccc(-n2cccn2)cc1 [Example 48, N-((1S,2S)-2-hydroxycyclohexyl)-5-methyl-4-(4-(1H-pyrazol-1-yl)benzyl)pyridine-2-carboxamide]
24 | 99 | Cc1cnc(C(=O)N[C@H]2COCC[C@@H]2O)cc1Cc1ccc(-n2cccn2)cc1 [Example 49, 1,5-anhydro-2,4-dideoxy-2-(((5-methyl-4-(4-(1H-pyrazol-1-yl)benzyl)pyridin-2-yl)carbonyl)amino)-L-threo-pentitol]
25 | 105 | Cc1cnc(C(=O)N[C@H]2CCC[C@@H]2O)cc1Cc1ccc(-n2cccn2)cc1 [Example 50, N-((1S,2S)-2-hydroxycyclopentyl)-5-methyl-4-(4-(1H-pyrazol-1-yl)benzyl)pyridine-2-carboxamide]
26 | 93 | O=C(N[C@H]1CCC[C@@H]1O)c1cc(Cc2ccc(-n3cccn3)cc2F)c(Cl)cn1 [Example 53, 5-chloro-4-(2-fluoro-4-(1H-pyrazol-1-yl)benzyl)-N-((1S,2S)-2-hydroxycyclopentyl)pyridine-2-carboxamide]
27 | 99 | O=C(N[C@H]1CCCC[C@@H]1O)c1cc(Cc2ccc(-n3cccn3)cc2F)c(Cl)cn1 [Example 54, 5-chloro-4-(2-fluoro-4-(1H-pyrazol-1-yl)benzyl)-N-((1S,2S)-2-hydroxycyclohexyl)pyridine-2-carboxamide]
28 | 97 | O=C(N[C@H]1CCCC[C@@H]1O)c1cc(Cc2ccc(-n3cccn3)cc2)c(F)cn1 [Example 55, 5-fluoro-N-((1S,2S)-2-hydroxycyclohexyl)-4-(4-(1H-pyrazol-1-yl)benzyl)pyridine-2-carboxamide]
